The text below walks through data of patent US12202843B2, “Muscarinic receptor agonists” (Nxera Pharma UK Limited, priority 2014, dated 2025).

Common to all, as to assay type: cell-based
In assay [1] the target is T1, human muscarinic M1 receptor (Homo sapiens, UniProt P11229).
T1 sequence (P11229 1-460): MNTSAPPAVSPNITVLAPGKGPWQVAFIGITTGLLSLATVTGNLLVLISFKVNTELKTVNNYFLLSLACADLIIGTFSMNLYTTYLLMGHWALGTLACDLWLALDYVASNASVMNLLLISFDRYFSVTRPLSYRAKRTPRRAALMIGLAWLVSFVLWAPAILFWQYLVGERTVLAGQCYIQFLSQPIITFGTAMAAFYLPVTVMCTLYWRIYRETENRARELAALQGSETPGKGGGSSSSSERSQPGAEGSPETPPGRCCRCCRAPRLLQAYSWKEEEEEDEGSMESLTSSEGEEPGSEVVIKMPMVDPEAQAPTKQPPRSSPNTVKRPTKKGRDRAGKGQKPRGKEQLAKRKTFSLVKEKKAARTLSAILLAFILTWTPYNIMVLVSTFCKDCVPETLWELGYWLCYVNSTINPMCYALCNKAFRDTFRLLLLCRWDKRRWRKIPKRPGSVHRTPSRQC
As to the kind of experiment: Alphascreen Surefire phospho-ERK1/2 functional assay, M1. To be noted: for EC50: CHO cells stably expressing human M1, read-out: pEC50 M1 (converted); for Emax: CHO, read-out: % Emax cf. ACh, M1, CHO cells stably expressing human M1, relative to ACh; for % Emax cf. ACh, M1: CHO cells stably expressing human M1, relative to ACh. The protocol:
(§1) ERK1/2 phosphorylation is a downstream consequence of both Gq/11 and Gi/o protein coupled receptor activation, making it highly suitable for the assessment of M1, M3 (Gq/11 coupled) and M2, M4 receptors (Gi/o coupled), rather than using different assay formats for different receptor subtypes. CHO cells stably expressing the human muscarinic M1, M2, M3 or M4 receptor were plated (25K/well) onto 96-well tissue culture plates in MEM-alpha+10% dialysed FBS. Once adhered, cells were serum-starved overnight. Agonist stimulation was performed by the addition of 5 μL agonist to the cells for 5 min (37° C.). Media was removed and 50 μL of lysis buffer added. […] Plates were incubated for 2 h with gentle agitation in the dark and then read on a PHERAstar plate reader.
(§2) pEC50 and Emax figures were calculated from the resulting data for each receptor subtype.

Assay [2] has as its target T2, human muscarinic M2 receptor (Homo sapiens, UniProt P08172).
T2 sequence (P08172 1-466): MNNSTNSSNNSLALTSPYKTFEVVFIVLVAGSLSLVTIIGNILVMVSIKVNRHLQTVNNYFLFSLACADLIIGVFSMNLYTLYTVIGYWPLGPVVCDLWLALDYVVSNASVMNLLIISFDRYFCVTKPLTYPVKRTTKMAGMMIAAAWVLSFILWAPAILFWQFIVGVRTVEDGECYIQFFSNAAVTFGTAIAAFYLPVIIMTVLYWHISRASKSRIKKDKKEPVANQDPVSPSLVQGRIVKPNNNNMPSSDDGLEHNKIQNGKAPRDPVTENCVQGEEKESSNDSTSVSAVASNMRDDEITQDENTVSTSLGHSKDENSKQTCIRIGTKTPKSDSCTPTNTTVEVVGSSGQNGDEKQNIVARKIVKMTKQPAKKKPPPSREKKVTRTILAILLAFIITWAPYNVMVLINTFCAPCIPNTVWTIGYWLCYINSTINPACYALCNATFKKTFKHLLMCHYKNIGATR
As to the kind of experiment: Alphascreen Surefire phospho-ERK1/2 functional assay, M2. To be noted: for EC50: CHO cells stably expressing human M2, read-out: pEC50 M2 (converted); for Emax: CHO, read-out: % Emax cf. ACh, M2, CHO cells stably expressing human M2, relative to ACh; for % Emax cf. ACh, M2: CHO cells stably expressing human M2, relative to ACh. The protocol:
as §1, §2
Background: Alpha assays give light when donor and acceptor beads are brought close together.

For assay [3], the target named is T3, human muscarinic M3 receptor (Homo sapiens, UniProt P20309).
T3 construct: expressed in transfected cells
T3 sequence (P20309 whole entry): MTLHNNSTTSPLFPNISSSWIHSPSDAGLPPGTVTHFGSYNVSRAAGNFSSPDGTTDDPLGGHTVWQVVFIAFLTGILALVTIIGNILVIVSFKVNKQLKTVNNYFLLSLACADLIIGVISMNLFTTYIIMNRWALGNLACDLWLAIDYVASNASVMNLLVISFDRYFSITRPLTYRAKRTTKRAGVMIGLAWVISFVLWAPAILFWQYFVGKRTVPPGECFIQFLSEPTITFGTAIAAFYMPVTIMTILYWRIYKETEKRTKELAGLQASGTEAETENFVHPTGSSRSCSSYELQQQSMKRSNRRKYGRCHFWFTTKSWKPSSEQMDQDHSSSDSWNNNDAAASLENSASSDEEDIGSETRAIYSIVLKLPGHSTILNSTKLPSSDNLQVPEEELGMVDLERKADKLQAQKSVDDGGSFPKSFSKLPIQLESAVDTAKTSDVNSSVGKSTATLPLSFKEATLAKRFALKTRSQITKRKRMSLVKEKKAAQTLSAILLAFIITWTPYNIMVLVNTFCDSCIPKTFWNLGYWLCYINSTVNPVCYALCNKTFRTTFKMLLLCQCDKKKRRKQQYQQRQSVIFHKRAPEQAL
As to the kind of experiment: Alphascreen Surefire phospho-ERK1/2 functional assay, M3. To be noted: for EC50: CHO cells stably expressing human M3, read-out: pEC50 M3 (converted); for Emax: CHO, read-out: % Emax cf. ACh, M3, CHO cells stably expressing human M3, relative to ACh; for % Emax cf. ACh, M3: CHO cells stably expressing human M3, relative to ACh. The protocol: as §1, §2

Assay [4] has as its target T4, human muscarinic M4 receptor (Homo sapiens, UniProt P08173).
T4 construct: expressed in transfected cells
T4 sequence (P08173 1-479): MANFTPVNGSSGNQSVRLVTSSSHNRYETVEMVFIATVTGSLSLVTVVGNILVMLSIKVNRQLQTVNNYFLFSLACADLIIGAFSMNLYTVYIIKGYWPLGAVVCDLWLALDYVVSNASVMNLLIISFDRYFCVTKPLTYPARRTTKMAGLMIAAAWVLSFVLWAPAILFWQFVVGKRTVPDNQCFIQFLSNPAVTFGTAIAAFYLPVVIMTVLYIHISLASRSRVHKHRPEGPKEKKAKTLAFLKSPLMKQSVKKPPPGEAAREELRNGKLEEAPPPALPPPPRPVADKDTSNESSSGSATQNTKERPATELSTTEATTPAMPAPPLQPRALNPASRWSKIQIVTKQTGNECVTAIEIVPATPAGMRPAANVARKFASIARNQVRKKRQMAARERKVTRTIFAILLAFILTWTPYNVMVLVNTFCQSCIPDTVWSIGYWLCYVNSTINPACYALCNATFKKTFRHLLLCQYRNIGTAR
Description: Alphascreen Surefire phospho-ERK1/2 functional assay, M4. To be noted: for EC50: CHO cells stably expressing human M4, read-out: pEC50 M4 (converted); for Emax: CHO, read-out: % Emax cf. ACh, M4, CHO cells stably expressing human M4, relative to ACh; for % Emax cf. ACh, M4: CHO cells stably expressing human M4, relative to ACh. The protocol: as §1, §2

For orientation: Emax means the maximal effect, on the per cent scale that the assay sets. As to `CC#CCOC(=O)N1C2CCC1CC(N1CCC3(CC1)CNC(=O)C3)C2` (single isomer, unassigned) [Example 2-5 Isomer 1], the EC50 is 25.1 nM in assay [1], 158 nM in assay [2], > 20000 nM in assay [3] and 25.1 nM in assay [4]. The Emax in assay [1] was 98%; in assay [2] it was 39%; in assay [3] it was 7%; in assay [4], 87%.

As to `CCOC(=O)N1C2CCC1CC(N1CCC3(CC1)CC(=O)NC3CC)C2` (single isomer, unassigned) [Example 2-8 Isomer 1, ethyl 3-(1-ethyl-3-oxo-2,8-diazaspiro[4.5]decan-8-yl)-8-azabicyclo[3.2.1]octane-8-carboxylate], the EC50 was 20 nM in assay [1], > 20000 nM in assay [2], 12600 nM in assay [3] and > 20000 nM in assay [4]. The “% Emax cf. ACh, M1” value in assay [1] (listed as 2-8 Isomer 1) came out at 52%. In assay [2], the Emax came out at 4%. For the same molecule, in assay [3] (listed as 2-8 Isomer 1), the “% Emax cf. ACh, M3” value amounted to 50%. In addition, the “% Emax cf. ACh, M4” value in assay [4] (listed as 2-8 Isomer 1) came out at 23%.

With `CCOC(=O)N1C2CCC1CC(N1CCC3(CC1)CC(=O)NC3CC)C2` (single isomer, unassigned) [Example 2-8 Isomer 2, ethyl 3-(1-ethyl-3-oxo-2,8-diazaspiro[4.5]decan-8-yl)-8-azabicyclo [3.2.1]octane-8-carboxylate], the EC50 in assay [1] is 100 nM; in assay [3], > 20000 nM; in assay [4], 31.6 nM. Also, the “% Emax cf. ACh, M1” value in assay [1] (listed as 2-8 Isomer 2) is on record as 89%. In assay [2], the “% Emax cf. ACh, M2” value came out at 6%. In addition, the “% Emax cf. ACh, M3” value in assay [3] (listed as 2-8 Isomer 2) amounted to 12%. The “% Emax cf. ACh, M4” value in assay [4] (listed as 2-8 Isomer 2) was 59%.

As for `CCCC1NC(=O)CC12CCN(C1CC3CCC(C1)N3C(=O)OCC)CC2` (single isomer, unassigned) [Example 2-9 Isomer 1], the EC50 is 5.01 nM in assay [1], > 20000 nM in assay [2], > 20000 nM in assay [3] and 2.51 nM in assay [4]. For the same molecule, the Emax was found to be 91% in assay [1], 2% in assay [2], 22% in assay [3] and 78% in assay [4].

`CCOC(=O)N1C2CCC1CC(N1CCC3(CC1)CC(=O)NC3Cc1ccccc1)C2` (single isomer, unassigned) [Example 2-10 Isomer 1]: the EC50 in assay [1] is 20 nM; in assay [2], > 20000 nM; in assay [3], > 20000 nM; in assay [4], 79.4 nM. The Emax in assay [1] stood at 74%. In addition, the “% Emax cf. ACh, M2” value in assay [2] (listed as 2-10 Isomer 1) is recorded as 1%. Further, the “% Emax cf. ACh, M3” value in assay [3] (listed as 2-10 Isomer 1) is 5%. Further, the “% Emax cf. ACh, M4” value in assay [4] (listed as 2-10 Isomer 1) is 21%.

On to `CCOC(=O)N1C2CCC1CC(N1CCC3(CC1)CC(=O)NC3Cc1ccccc1)C2` (single isomer, unassigned) [Example 2-10 Isomer 2], for which, in assay [1], the EC50 was 63.1 nM and the “% Emax cf. ACh, M1” value amounted to 77%. In addition, in assay [2] (listed as 2-10 Isomer 2), the “% Emax cf. ACh, M2” value is reported as 11%. In assay [3] (listed as 2-10 Isomer 2), the “% Emax cf. ACh, M3” value is given as 13%. Also, the EC50 in assay [4] was 126 nM. Besides, the “% Emax cf. ACh, M4” value in assay [4] (listed as 2-10 Isomer 2) worked out at 50%.

On to `CCOC(=O)N1C2CCC1C(F)C(N1CCC3(CC1)CNC(=O)C3)C2` (single isomer, unassigned) [Example 2-11 Isomer 2], for which, in assay [1], the EC50 is 251 nM and the “% Emax cf. ACh, M1” value came to 101%. In assay [2], the EC50 is > 20000 nM and the Emax is 18%. Further, in assay [3], the EC50 is > 20000 nM and the Emax turned out to be 22%. In addition, in assay [4], the EC50 was 200 nM and the “% Emax cf. ACh, M4” value came to 55%.

In the case of `CCOC(=O)N1C2CCC1CC(N1CCC3(CC1)CC(=O)N(CC)C3)C2` (single isomer, unassigned) [Example 2-13 Isomer 2], the EC50 in assay [1] is 158 nM; in assay [2] it was > 20000 nM; in assay [3], > 20000 nM; in assay [4] it was 100 nM. Further, the Emax in assay [1] amounted to 76%; in assay [2], 11%; in assay [3], 57%; in assay [4] it was 49%.
